Data from article PMC12348798, “Synthesis and Molecular Modeling of Antioxidant and Anti-Inflammatory Five-Membered Heterocycle–Cinnamic Acid Hybrids” (Molecules, 2025).

Experiments:
[1] = Interaction with the stable free radical DPPH (reducing activity)
Procedure: Firstly, the synthesized derivatives were evaluated for their ability to interact with the stable free radical 2,2-diphenyl-1-picrylhydrazyl (DPPH) at a concentration of 100 μM after 20 and 60 min (Table 2). DPPH is a valuable tool for studying antioxidant activity. Its reactivity with lipophilic compounds is not solely determined by their lipophilicity. The specific chemical structure of the antioxidant, the solvent used, and other factors can all influence the interaction with DPPH. However, lipophilic compounds tend to be well dissolved in organic solvents reacting with DPPH. Based on previous findings, the antioxidant activity is related with lipophilicity.
(§1) A 10 mM stock solution of the synthesized compounds was prepared in DMSO for the vitro assays. Serial dilutions were carried out to determine the IC50 values. Each experiment was conducted six times, with standard deviations remaining below 10% of the mean.
An in vitro study was conducted as previously described by our group. Free radical scavenging activity was evaluated by measuring absorbance at 517 nm after 20 and 60 min at room temperature.

[2] = Inhibition of AAPH-induced linoleic acid peroxidation
Procedure: In the lipid peroxidation assay, 2,2′-azobis(2-methylpropionamidine)dihydrochloride (AAPH) was used as a peroxyl radical inducer, and sodium linoleate as a substrate. The formation of 13-hydroperoxy-linoleic acid from linoleic acid was monitored by measuring absorbance at 234 nm. Trolox was used as a reference compound.
as §1
AAPH was employed as an inducer of alkyl peroxyl radicals. In this experiment, the compounds’ ability to inhibit the oxidation of linoleic acid by alkyl peroxyl radicals was assessed by monitoring the change in absorbance at 234 nm due to the formation of 13-hydroperoxy-linoleic acid. Trolox was used as the reference compound [59, 68].

soybean lipoxygenase = molecular target: T1, soybean lipoxygenase (Glycine max, UniProt P08170); test: Inhibition of soybean lipoxygenase; type: biochemical; details: for IC50: soybean lipoxygenase, sodium linoleate substrate, read-out: LOX IC50; for inhibition at 100 µM: read-out: LOX % Inhibition 100 μM
T1 construct: purchased Sigma Aldrich, Merck KGaA, Darmstadt, Germany
T1 sequence (P08170 1-839): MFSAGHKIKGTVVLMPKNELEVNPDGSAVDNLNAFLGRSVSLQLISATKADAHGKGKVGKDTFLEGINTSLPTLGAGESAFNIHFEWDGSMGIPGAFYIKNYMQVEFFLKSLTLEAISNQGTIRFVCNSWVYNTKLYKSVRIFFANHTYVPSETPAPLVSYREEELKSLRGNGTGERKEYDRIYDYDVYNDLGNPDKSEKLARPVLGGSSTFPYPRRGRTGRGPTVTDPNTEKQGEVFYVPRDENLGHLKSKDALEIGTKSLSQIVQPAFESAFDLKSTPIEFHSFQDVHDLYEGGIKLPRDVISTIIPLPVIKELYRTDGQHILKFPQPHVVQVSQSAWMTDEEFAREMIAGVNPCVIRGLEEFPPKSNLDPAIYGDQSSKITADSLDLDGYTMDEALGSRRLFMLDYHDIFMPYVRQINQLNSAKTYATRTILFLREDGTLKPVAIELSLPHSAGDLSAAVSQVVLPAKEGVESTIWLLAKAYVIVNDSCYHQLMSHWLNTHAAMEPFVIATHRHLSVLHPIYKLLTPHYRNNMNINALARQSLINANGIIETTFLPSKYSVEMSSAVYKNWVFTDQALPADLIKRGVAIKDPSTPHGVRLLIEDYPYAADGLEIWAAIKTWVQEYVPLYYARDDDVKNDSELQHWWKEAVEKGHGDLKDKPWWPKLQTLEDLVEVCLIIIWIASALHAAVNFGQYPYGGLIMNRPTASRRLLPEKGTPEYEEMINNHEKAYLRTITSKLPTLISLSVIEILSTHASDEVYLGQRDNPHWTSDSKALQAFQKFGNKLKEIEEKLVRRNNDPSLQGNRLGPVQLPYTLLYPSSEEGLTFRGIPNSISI
Procedure: Lipoxygenase (LOX) is responsible for the formation of leukotrienes, important inflammatory mediators. Due to its important role, it is considered as a therapeutic target for inflammatory diseases. Soybean lipoxygenase (LOX), a plant-derived enzyme, has been extensively utilized as a model for investigating the functional and structural properties of the lipoxygenase family, due to its significant homology with human 5-LOX [35, 61].
A 10 mM stock solution of the synthesized compounds was prepared in DMSO for the vitro assays. Serial dilutions were carried out to determine the IC50 values.
Sodium linoleate (0.1 mM), 0.2 mL of soybean lipoxygenase solution (1/9 × 10^−4 w/v in saline), and 10 μL of the test compound stock solution (10 mM in DMSO) were incubated at room temperature. Absorbance was recorded at 234 nm while monitoring the formation of 13-hydroperoxy-linoleic acid. […] To determine IC50 values, various concentrations of the test compounds were applied.

[3] = system: Valosine-containing protein; design: method as in PMID 23245311; details: from the literature; cited from earlier work

Row | SMILES | RA % 100 μM 20 min [1] [%] | RA % 100 μM 60 min [1] [%] | AAPH % Inhibition 100 μM [2] [%] | IC50 (soybean lipoxygenase) [µM] | inhibition at 100 µM (soybean lipoxygenase) [%] | Valosine-containing protein inhibition [3]
1 | O=C(C=Cc1ccccc1)NNC(=S)Nc1ccccc1 [Compound 3a, 2-Cinnamoyl-N-phenylhydrazine-1-carbothioamide] | 61 | 92 | 67 | 8.5 | – | –
2 | O=C(/C=C/c1ccc(Cl)cc1)NNC(=S)Nc1ccccc1 [Compound 3b, (E)-2-(3-(4-Chlorophenyl)acryloyl)-N-phenylhydrazine-1-carbothioamide] | 90 | 83 | 37 | – | 49 | –
3 | O=C(/C=C/c1ccc(F)cc1)NNC(=S)Nc1ccccc1 [Compound 3c, (E)-2-(3-(4-Fluorophenyl)acryloyl)-N-phenylhydrazine-1-carbothioamide] | 90 | 91 | 12 | – | 45 | –
4 | O=C(/C=C/c1ccc(Br)cc1)NNC(=S)Nc1ccccc1 [Compound 3d, (E)-2-(3-(4-Bromophenyl)acryloyl)-N-phenylhydrazine-1-carbothioamide] | 29 | 97 | 33 | 8 | – | –
5 | CC(=O)Oc1ccc(/C=C/C(=O)NNC(=S)Nc2ccccc2)cc1 [Compound 3e, (E)-4-(3-Oxo-3-(2-(phenylcarbamothioyl)hydrazineyl)prop-1-en-1-yl)phenyl acetate] | 83 | 21 | 47 | 9.75 | – | –
6 | O=C(/C=C/c1ccc2c(c1)OCO2)NNC(=S)Nc1ccccc1 [Compound 3f, (E)-2-(3-(Benzo[d][1,3]dioxol-5-yl)acryloyl)-N-phenylhydrazine-1-carbothioamide] | 70 | 89 | 58 | 35 | – | –
7 | O=C(/C=C/c1ccc(OCc2ccc(Br)cc2)cc1)NNC(=S)Nc1ccccc1 [Compound 3g, (E)-2-(3-(4-((4-Bromobenzyl)oxy)phenyl)acryloyl)-N-phenylhydrazine-1-carbothioamide] | 98 | 87 | 91 | 10 | – | –
8 | Sc1nnc(/C=C/c2ccccc2)n1-c1ccccc1 [Compound 4a, (E)-4-Phenyl-5-styryl-4H-1,2,4-triazole-3-thiol] | 74 | 93 | 26 | 7.5 | – | –
9 | Sc1nnc(/C=C/c2ccc(Cl)cc2)n1-c1ccccc1 [Compound 4b, (E)-5-(4-Chlorostyryl)-4-phenyl-4H-1,2,4-triazole-3-thiol] | 33 | 88 | 34 | 4.5 | – | –
10 | Fc1ccc(/C=C/c2nnc(S)n2-c2ccccc2)cc1 [Compound 4c, (E)-5-(4-Fluorostyryl)-4-phenyl-4H-1,2,4-triazole-3-thiol] | 82 | 93 | 94 | – | 35 | –
11 | Sc1nnc(/C=C/c2ccc(Br)cc2)n1-c1ccccc1 [Compound 4d, (E)-5-(4-Bromostyryl)-4-phenyl-4H-1,2,4-triazole-3-thiol] | 68 | 57 | 20 | 97.5 | – | allosteric Valosine-containing protein inhibitor
12 | CC(=O)Oc1ccc(/C=C/c2nnc(S)n2-c2ccccc2)cc1 [Compound 4e, (E)-4-(2-(5-Mercapto-4-phenyl-4H-1,2,4-triazol-3-yl)vinyl)phenyl acetate] | 96 | 93 | 87 | 5.5 | – | –
13 | Sc1nnc(/C=C/c2ccc3c(c2)OCO3)n1-c1ccccc1 [Compound 4f, (E)-5-(2-(Benzo[d][1,3]dioxol-5-yl)vinyl)-4-phenyl-4H-1,2,4-triazole-3-thiol] | 87 | 76 | 71 | 7.5 | – | –
14 | Sc1nnc(/C=C/c2ccc(OCc3ccc(Br)cc3)cc2)n1-c1ccccc1 [Compound 4g, (E)-5-(4-((4-Bromobenzyl)oxy)styryl)-4-phenyl-4H-1,2,4-triazole-3-thiol] | 97 | 92 | 50 | 4.5 | – | –
15 | C(=C\c1nnc(Nc2ccccc2)o1)/c1ccccc1 [Compound 5a, (E)-N-Phenyl-5-styryl-1,3,4-oxadiazol-2-amine] | – | 7 | 17 | 32.5 | – | –
16 | Clc1ccc(/C=C/c2nnc(Nc3ccccc3)o2)cc1 [Compound 5b, (E)-5-(4-Chlorostyryl)-N-phenyl-1,3,4-oxadiazol-2-amine] | 65 | 72 | – | 18 | – | –
17 | Fc1ccc(/C=C/c2nnc(Nc3ccccc3)o2)cc1 [Compound 5c, (E)-5-(4-Fluorostyryl)-N-phenyl-1,3,4-oxadiazol-2-amine] | 92 | 82 | 63 | 17 | – | –
18 | C(=C\c1nnc(Nc2ccccc2)s1)/c1ccccc1 [Compound 6a, (E)-N-Phenyl-5-styryl-1,3,4-thiadiazol-2-amine] | 98 | 96 | 60 | 5 | – | –
19 | CC(Cc1ccc(O)c(O)c1)C(C)Cc1ccc(O)c(O)c1 (centres unmarked) [NDGA, Nordihydroguaiaretic acid, reference compound] | 87 | 93 | – | – | – | –
20 | Cc1c(C)c2c(c(C)c1O)CCC(C)(C(=O)O)O2 (centres unmarked) [Trolox, 6-hydroxy-2,5,7,8-tetramethyl-chroman2-carboxylic acid, reference compound] | – | – | 92 | – | – | –
